What was measured:
[1] = biological target: T1, microsomal triglyceride transfer protein (MTP) (Mesocricetus auratus, UniProt P55158); assay: Inhibition of MTP activity: transfer of [3H]-triolein from donor liposomes to biotinylated LDL, SPA; format: biochemical; details: MTP from golden hamster liver; incubation 18-24 hours at 37° C.; read-out: IC50, concentration that allows a 50% inhibition of MTP
T1 construct: The supernatant comprising the soluble MTP is dialysed against Tris/HCl 150 mM; from tissue; host or cells: golden hamster liver microsomes, deoxycholate-solubilised supernatant, dialysed
T1 sequence (P55158 19-895): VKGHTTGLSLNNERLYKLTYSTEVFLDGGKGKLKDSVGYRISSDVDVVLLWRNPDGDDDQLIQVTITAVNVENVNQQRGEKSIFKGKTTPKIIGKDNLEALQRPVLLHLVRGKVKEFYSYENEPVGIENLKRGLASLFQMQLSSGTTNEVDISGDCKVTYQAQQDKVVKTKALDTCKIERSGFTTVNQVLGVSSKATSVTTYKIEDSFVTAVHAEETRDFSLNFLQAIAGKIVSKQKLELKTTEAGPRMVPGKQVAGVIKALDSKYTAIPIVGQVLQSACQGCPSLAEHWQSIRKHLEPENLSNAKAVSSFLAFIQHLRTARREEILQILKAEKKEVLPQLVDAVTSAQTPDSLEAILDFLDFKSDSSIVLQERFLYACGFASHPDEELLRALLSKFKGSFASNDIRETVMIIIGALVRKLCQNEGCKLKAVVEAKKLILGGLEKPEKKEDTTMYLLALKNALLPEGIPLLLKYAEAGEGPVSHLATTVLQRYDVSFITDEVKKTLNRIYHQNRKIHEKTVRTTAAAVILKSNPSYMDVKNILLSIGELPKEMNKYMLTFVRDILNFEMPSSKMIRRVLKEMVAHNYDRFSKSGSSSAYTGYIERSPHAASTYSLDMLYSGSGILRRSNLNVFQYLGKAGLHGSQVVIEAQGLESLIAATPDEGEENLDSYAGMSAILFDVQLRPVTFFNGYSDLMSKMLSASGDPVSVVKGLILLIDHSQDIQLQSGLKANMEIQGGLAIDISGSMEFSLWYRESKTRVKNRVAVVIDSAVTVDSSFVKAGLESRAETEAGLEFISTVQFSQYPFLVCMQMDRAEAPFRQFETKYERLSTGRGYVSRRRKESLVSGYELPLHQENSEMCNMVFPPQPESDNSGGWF
How it was run: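 Soluble MTP was extracted with deoxycholate from golden hamster liver microsomes. It was incubated with [3H]-triolein/phosphatidylcholine donor liposomes, biotinylated LDL acceptors and compound in DMSO in HEPES/NaCl/BSA buffer, pH 7.4, for 18-24 h at 37° C. Transfer was read with streptavidin SPA beads, and IC50 was taken as 50% inhibition of transfer.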

[2] = system: apo B secretion in HepG2 cells; assay: Secretion of apo B in the HepG2 human cell line (sandwich-ELISA); format: cell-based; details: 24 hours incubation, culture supernatant, read-out: IC50, concentration that produces a 50% inhibition of apo B secretion in the HepG2 cells
Procedure: Analysis of the Secretion of apo B in the HepG2 Human Cell Line:
The activity of a compound according to the invention can be evaluated by measuring the inhibition of apo B secretion in HepG2 cells.
The HepG2 cells (ECACC—No. 85011430) are used as model in the study of the in vitro hepatic secretion of lipoproteins (Dixon J. and Ginsberg H., J., Lipid. Res., 1993, 34, 167-179).
The HepG2 cells are cultured in Dulbecco's modified Eagle's medium comprising 10% foetal calf serum (DMEM and FBS—Gibco) in 96-well plates under an atmosphere of 5% carbon dioxide for 24 hours (about 70% confluence).
The test compounds are dissolved at a concentration of 2 or 10 mM in dimethyl sulfoxide (DMSO). Serial dilutions (1:3.16) are made in DMSO and are added (1:200—Robot Multimek Beckman) to the growth medium (200 μL) and then finally incubated for 24 hours in the various wells containing the HepG2 cells.
The 24-hour culture supernatant diluted to 1:5 (phosphate-buffered saline:PBS comprising 1% bovine serum albumin) is tested according to a sandwich-ELISA method specific for human apo B.
The results are expressed in terms of IC50, i.e. the concentration that produces a 50% inhibition of apo B secretion in the HepG2 cells.

Structure (SMILES)	IC50 [1]	IC50 [2]
CSC(=O)N1CCC(Oc2cccc(NC(=O)c3cccc(C)c3-c3ccc(OC(F)(F)F)cc3)c2)CC1 [Example 10]	39.2 nM	12.2 nM
CCCCCCNC(=O)N1CCC(Oc2cccc(NC(=O)c3cccc(C)c3-c3ccc(OC(F)(F)F)cc3)c2)CC1 [Example 41, N-hexyl-4-[3-[[[6-methyl-4′-(trifluorometh-oxy)[1,1′-biphenyl]-2-yl]carbonyl]amino]-phenoxy]-1-piperidinecarboxamide]	45.5 nM	33.1 nM
COc1ccc(C(=O)N2CCC(Oc3cccc(NC(=O)c4cccc(C)c4-c4ccc(OC(F)(F)F)cc4)c3)CC2)cc1OC [Example 103]	130 nM	68.4 nM
C/C=C/C(=O)N1CCC(Oc2cccc(NC(=O)c3cccc(C)c3-c3ccc(OC(F)(F)F)cc3)c2)CC1 [Example 128, 6-methyl-N-[3-[[1-[(2E)-1-oxo-2-butenyl]-4-piperidinyl]oxy]phenyl]-4′-(trifluorometh-oxy)[1,1′-biphenyl]-2-carboxamide]	100 nM	22.2 nM
COC(=O)c1ccc(NC(=O)N2CCC(Oc3cccc(NC(=O)c4cccc(C)c4-c4ccc(OC(F)(F)F)cc4)c3)CC2)cc1 [Example 55, methyl 4-[[[4-[3-[[[6-methyl-4′-(trifluoro-methoxy)[1,1′-biphenyl]-2-yl]carbonyl]-amino]phenoxy]-1-piperidinyl]carbonyl]-amino]benzoate]	208 nM	46.6 nM
Cc1cccc(C(=O)Nc2cccc(OC3CCN(C(=O)c4ccno4)CC3)c2)c1-c1ccc(OC(F)(F)F)cc1 [Example 100, N-[3-[[1-(5-isoxazolylcarbonyl)-4-piperi-dinyl]oxy]phenyl]-6-methyl-4′-(trifluoro-methoxy)[1,1′-biphenyl]-2-carboxamide]	139 nM	54.1 nM
Cc1cccc(C(=O)Nc2cccc(OC3CCN(C(=O)OCC(C)C)CC3)c2)c1-c1ccc(OC(F)(F)F)cc1 [Example 8, 2-methylpropyl 4-[3-[[[6-methyl-4′-(trifluoromethoxy)[1,1-biphenyl]-2-yl]carbonyl]amino]phenoxy]-1-piperidine-carboxylate]	55.5 nM	25.2 nM

Other lines, results leading:

IC50 [1]	IC50 [2]	Structure (SMILES)
86.9 nM	53 nM	CCNC(=O)N1CCC(Oc2cccc(NC(=O)c3cccc(C)c3-c3ccc(OC(F)(F)F)cc3)c2)CC1 [Example 12, N-ethyl-4-[3-[[[6-methyl-4′-(trifluoro-methoxy)[1,1′-biphenyl]-2-yl]carbonyl]-amino]phenoxy]-1-piperidinecarboxamide]
110 nM	83 nM	COCCOC(=O)N1CCC(Oc2cccc(NC(=O)c3ccccc3-c3ccc(OC(F)(F)F)cc3)c2)CC1 [Example 74]
69.1 nM	13.7 nM	Cc1cccc(C(=O)Nc2cccc(OC3CCN(C(=O)NCCc4ccccc4)CC3)c2)c1-c1ccc(OC(F)(F)F)cc1 [Example 40, 4-[3-[[[6-methyl-4′-(trifiuoromethoxy)[1,1′-biphenyl]-2-yl]carbonyl]amino]phenoxy]-N-(2-phenylethyl)-1-piperidinecarbox-amide]
45.1 nM	0.8 nM	COC(=O)N1CCC(Oc2cccc(NC(=O)c3cccc(C)c3-c3ccc(OC(F)(F)F)cc3)c2)CC1 [Example 5, methyl 4-[3-[[[6-methyl-4′-(trifluoro-methoxy)[1,1′-biphenyl]-2-yl]carbonyl]-amino]phenoxy]-1-piperidinecarboxylate]
160 nM	92.6 nM	COc1ccc(CC(=O)N2CCC(Oc3cccc(NC(=O)c4cccc(C)c4-c4ccc(OC(F)(F)F)cc4)c3)CC2)cc1 [Example 101, N-[3-[[1-[2-(4-methoxyphenyl)acetyl]-4-piperidinyl]oxy]phenyl]-6-methyl-4′-(trifluoromethoxy)[1,1′-biphenyl]-2-carboxamide]
213 nM	25.7 nM	CC(=O)OCC(=O)N1CCC(Oc2cccc(NC(=O)c3cccc(C)c3-c3ccc(OC(F)(F)F)cc3)c2)CC1 [Example 102, N-[3-[[1-[2-(acetyloxy)acetyl]-4-piperidin-yl]oxy]phenyl]-6-methyl-4′-(trifluorometh-oxy)[1,1′-biphenyl]-2-carboxamide]
47.6 nM	4 nM	CCOC(=O)N1CCC(Oc2cccc(NC(=O)c3cccc(C)c3-c3ccc(OC(F)(F)F)cc3)c2)CC1 [Example 6, ethyl 4-[3-[[[6-methyl-4′-(trifluoromethoxy)-[1,1′-biphenyl]-2-yl]carbonyl]amino]-phenoxy]-1-piperidinecarboxylate]
